“Also recorded” adds a separate entry of the source. Read-outs that look alike come from different tables or passages of the source.
Tests used:
tumor promotion = details: cited from earlier work
Mouse PKC α = Mouse PKC α (Mus musculus, UniProt P20444); test: biochemical; assay type: binding
PKCβII = PKCβII (Homo sapiens, UniProt P05771); test: Down regulation of PKCβII in U937 cells; assay type: cell-based
PKCδ = PKCδ (Homo sapiens, UniProt Q05655); test: Down regulation of PKCδ in U937 cells; assay type: cell-based
Chain of PKCδ (Q05655 whole entry): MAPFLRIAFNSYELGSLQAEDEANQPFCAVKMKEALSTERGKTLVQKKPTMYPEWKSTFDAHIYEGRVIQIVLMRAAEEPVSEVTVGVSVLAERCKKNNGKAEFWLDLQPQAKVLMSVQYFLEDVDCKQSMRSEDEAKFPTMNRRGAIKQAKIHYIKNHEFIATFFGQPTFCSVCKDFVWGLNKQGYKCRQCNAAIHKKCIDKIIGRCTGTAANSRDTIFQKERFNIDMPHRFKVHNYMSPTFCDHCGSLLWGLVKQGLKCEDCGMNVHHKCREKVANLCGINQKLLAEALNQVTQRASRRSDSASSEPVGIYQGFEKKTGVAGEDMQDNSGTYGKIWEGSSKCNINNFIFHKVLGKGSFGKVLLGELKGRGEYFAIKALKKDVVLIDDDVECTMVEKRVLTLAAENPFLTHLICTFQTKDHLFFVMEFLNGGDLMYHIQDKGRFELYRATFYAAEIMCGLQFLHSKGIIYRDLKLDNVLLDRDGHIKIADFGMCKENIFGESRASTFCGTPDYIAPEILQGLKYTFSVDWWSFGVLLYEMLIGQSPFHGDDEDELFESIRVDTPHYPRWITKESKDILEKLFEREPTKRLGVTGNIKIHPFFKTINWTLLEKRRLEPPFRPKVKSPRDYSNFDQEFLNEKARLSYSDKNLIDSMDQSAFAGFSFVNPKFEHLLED

U937 leukemia cells [1] = assay type: cell-based, human; details: 60 hours; for suppression of growth inhibition induced by PMA: co-administered with PMA
U937 leukemia cells [2] = assay type: cell-based, human; details: 60 hours; for cell attachment: U937 cells; for inhibition of attachment induced by PMA: co-administered with PMA
U937 cells = assay type: cell-based, human; details: araC 1 μM, 24 h; bryostatin 1 100 nM, bryostatin 7 1000 nM
mouse GFP-PKCδ = mouse GFP-PKCδ (Mus musculus, UniProt P28867); test: Translocation of mouse GFP-PKCδ in LNCaP cells; assay type: cell-based; details: 1000 nM PMA, 1000 nM bryostatin 1, 3000 nM bryostatin 7
Chain of mouse GFP-PKCδ (P28867 whole entry): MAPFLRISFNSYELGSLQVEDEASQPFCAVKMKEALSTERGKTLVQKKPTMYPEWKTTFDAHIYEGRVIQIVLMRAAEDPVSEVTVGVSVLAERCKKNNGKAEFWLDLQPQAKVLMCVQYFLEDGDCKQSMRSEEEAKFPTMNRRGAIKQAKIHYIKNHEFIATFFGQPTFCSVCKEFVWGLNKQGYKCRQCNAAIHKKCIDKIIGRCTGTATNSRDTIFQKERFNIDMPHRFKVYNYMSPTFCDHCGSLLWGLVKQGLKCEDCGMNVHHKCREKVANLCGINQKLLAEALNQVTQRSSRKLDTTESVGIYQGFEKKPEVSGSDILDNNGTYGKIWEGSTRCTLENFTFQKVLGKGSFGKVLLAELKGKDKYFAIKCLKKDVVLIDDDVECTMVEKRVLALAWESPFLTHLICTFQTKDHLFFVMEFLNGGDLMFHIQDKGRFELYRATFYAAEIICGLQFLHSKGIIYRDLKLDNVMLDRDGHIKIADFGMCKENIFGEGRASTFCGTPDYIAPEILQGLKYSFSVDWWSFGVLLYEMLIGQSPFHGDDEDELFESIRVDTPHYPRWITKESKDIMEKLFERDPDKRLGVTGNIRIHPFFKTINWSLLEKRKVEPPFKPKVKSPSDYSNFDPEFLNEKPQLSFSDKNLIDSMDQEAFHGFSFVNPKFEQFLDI

human GFP-PKCδ = human GFP-PKCδ (Homo sapiens, UniProt Q05655); test: Translocation of human GFP-PKCδ in LNCaP cells; assay type: cell-based; details: 1000 nM PMA, 1000 nM bryostatin 1, 3000 nM bryostatin 7
Chain of human GFP-PKCδ (Q05655 whole entry): as the sequence (Q05655 whole entry) above

human YFP-PKCε = target: T1, human YFP-PKCε (Homo sapiens, UniProt Q02156); test: Translocation of human YFP-PKCε in LNCaP cells; assay type: cell-based
T1 sequence (Q02156 1-737): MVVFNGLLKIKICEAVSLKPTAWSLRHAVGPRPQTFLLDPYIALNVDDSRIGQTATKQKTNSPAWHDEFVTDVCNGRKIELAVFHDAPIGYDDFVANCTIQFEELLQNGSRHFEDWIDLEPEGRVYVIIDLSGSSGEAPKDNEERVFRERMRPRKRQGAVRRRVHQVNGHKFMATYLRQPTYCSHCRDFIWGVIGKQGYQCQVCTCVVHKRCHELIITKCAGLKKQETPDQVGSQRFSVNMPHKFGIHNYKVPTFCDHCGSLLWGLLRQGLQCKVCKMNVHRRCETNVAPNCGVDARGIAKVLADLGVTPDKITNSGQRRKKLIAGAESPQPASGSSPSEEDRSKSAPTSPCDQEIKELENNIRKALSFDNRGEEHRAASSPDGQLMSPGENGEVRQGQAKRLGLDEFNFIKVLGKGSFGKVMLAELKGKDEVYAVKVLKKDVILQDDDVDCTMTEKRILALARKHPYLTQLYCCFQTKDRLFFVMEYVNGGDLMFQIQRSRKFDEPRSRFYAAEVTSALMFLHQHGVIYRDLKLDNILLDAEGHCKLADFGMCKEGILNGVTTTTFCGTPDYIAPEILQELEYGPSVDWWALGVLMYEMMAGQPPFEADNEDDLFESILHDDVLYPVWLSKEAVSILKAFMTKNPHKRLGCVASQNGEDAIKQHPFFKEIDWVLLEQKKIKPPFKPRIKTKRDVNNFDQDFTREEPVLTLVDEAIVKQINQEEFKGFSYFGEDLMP

human GFP-PKCα = human GFP-PKCα (Homo sapiens, UniProt P17252); test: Translocation of human GFP-PKCα in CHO cells; assay type: cell-based
[3] = tested on: PKC isoforms and PKD1 in LNCaP cells; test: Subcellular fractionation of LNCaP cells; assay type: cell-based, human; details: 60 min
[4] = tested on: PKC signaling in LNCaP cells; test: PKC and downstream signaling in LNCaP cells; assay type: cell-based, human; details: 60 min
[5] = tested on: phorbol ester responsive genes in LNCaP cells; test: Gene induction in LNCaP cells; assay type: cell-based, human; details: 6 hours, 1000 nM
[6] = tested on: human PKC isoforms α, βII, δ, and ε
PKC = details: cited from earlier work
human platelets = details: cited from earlier work
[7] = tested on: TNFα secretion in LNCaP cells; test: TNFα secretion by LNCaP cells; details: for inhibition of secretion of TNFα induced by PMA: 30 nM PMA; for secretion of TNFα: 24 h
[8] = tested on: LNCaP human prostate cancer cells; test: Proliferation of LNCaP cells; details: for inhibition of proliferation of LNCaP cells: 36 h; for block of inhibition of proliferation by PMA: PMA 30 nM co-administered
PKCε = target: T2, PKCε (Homo sapiens, UniProt Q02156); test: Down regulation of PKCε in U937 cells; assay type: cell-based; details: data not shown
T2 sequence (Q02156 1-737): T1 sequence (Q02156 1-737)

[9] = tested on: TNFα secretion in U937 cells; test: TNF-alpha secretion by U937 cells; assay type: cell-based, human
[10] = read-out: EC50 for down regulation of PKCβII, 24 hours

Chain of PKCβII (P05771 1-673 isoform P05771-2): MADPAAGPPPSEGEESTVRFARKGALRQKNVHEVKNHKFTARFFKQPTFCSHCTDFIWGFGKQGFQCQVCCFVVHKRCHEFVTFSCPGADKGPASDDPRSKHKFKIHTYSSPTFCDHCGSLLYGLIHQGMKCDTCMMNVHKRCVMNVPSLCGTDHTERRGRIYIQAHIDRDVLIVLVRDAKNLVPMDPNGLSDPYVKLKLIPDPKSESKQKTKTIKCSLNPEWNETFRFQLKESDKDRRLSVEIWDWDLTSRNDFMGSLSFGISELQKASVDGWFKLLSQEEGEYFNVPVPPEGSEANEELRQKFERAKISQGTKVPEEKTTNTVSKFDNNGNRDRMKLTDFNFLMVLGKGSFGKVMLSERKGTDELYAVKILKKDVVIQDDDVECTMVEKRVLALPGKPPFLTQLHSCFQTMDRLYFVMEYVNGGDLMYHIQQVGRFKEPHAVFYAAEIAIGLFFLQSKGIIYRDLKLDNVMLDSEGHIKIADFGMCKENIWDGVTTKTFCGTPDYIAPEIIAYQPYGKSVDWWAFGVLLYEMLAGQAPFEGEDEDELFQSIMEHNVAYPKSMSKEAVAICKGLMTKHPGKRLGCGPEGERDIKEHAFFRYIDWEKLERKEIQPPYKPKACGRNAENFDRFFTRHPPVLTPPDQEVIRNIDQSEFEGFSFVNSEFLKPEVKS

CC(C)[C@H]1C(=O)N[C@H](CO)Cc2c[nH]c3cccc(c23)N1C [indolactam V]
tumor promoting activity (tumor promotion): tumor promoters

CC(=O)O[C@@]12C[C@@H](C)[C@@]3(O)[C@@H](C=C(CO)C[C@]4(O)C(=O)C(C)=C[C@@H]34)[C@@H]1C2(C)C [prostratin]
tumor promoting activity (tumor promotion): inhibits tumor promotion

COC(=O)/C=C1/C[C@H]2C[C@]3(O)O[C@H](C[C@@H](O)CC(=O)O[C@@H]([C@@H](C)O)C[C@@H]4C/C(=C\C(=O)OC)[C@H](OC(C)=O)[C@@](O)(O4)C(C)(C)/C=C/[C@@H](C1)O2)C[C@H](OC(C)=O)C3(C)C [Bryostatin 7, bryostatin 7]
Ki (Mouse PKC α): 0.26 ± 0.06 nM
potency for PKCβII down regulation, fold weaker than bryostatin 1 (PKCβII; 24 hours): 3 fold
EC50 (PKCβII; [10]): 0.97 ± 0.08 nM
down regulation of PKCδ (PKCδ; 24 hours): resembled bryostatin 1
potency for PKCδ down regulation, fold weaker than bryostatin 1 (PKCδ; 24 hours): approximately 3 fold
EC50 (PKCδ; read-out: EC50 for down regulation of PKCδ, 24 hours): 0.22 ± 0.03 nM
inhibition of U937 cell proliferation (U937 leukemia cells [1]): very limited, biphasic inhibition; also recorded: inhibited proliferation slightly more than did bryostatin 1
suppression of growth inhibition induced by PMA (U937 leukemia cells [1]): able to suppress the growth inhibition induced by PMA
cell attachment (U937 leukemia cells [2]): much reduced level of cell attachment compared to that induced by PMA; also recorded: induced slightly more attachment than did bryostatin 1
inhibition of attachment induced by PMA (U937 leukemia cells [2]): able to inhibit the attachment induced by PMA
synergy with araC for loss of mitochondrial membrane potential (U937 cells): able to synergize with araC
translocation pattern of mouse GFP-PKCδ (mouse GFP-PKCδ): only to the nuclear membrane and internal membranes
translocation pattern of human GFP-PKCδ (human GFP-PKCδ): only caused translocation of the human GFP-PKCδ to nuclear and internal membranes
translocation pattern of human YFP-PKCε (human YFP-PKCε): no plasma membrane translocation
translocation pattern of human GFP-PKCα (human GFP-PKCα): pattern of translocation similar to that of bryostatin 1
PKCδ in the nuclear enriched fraction [3]: resembled bryostatin 1 for this response
pPKD1 in the nuclear fraction [3]: behaved similarly to bryostatin 1
PKCδ phosphorylation on Y311 [4]: inability to induce efficient PKCδ phosphorylation on Y311
induction of PKCδ phosphorylation at S299 [4]: closely similar
induction of cFos or EGR1 [4]: reduced induction of cFos or EGR1 at 60 min compared to bryostatin 1
phosphorylation of PKD1 [4]: somewhat less phosphorylation of PKD1 than did bryostatin 1
changes in levels of mRNA expression [5]: generally similar for bryostatin 1 and bryostatin 7 and less than they were for PMA
selectivity among PKC isoforms [6]: little selectivity among these PKC isoforms
binding affinity towards PKC among bryostatins (PKC): highest binding affinity towards PKC
aggregation of human platelets (human platelets): mimics the activity of the phorbol ester PMA in inducing aggregation of human platelets
inhibition of secretion of TNFα induced by PMA [7]: inhibits the secretion of TNFα induced by PMA
secretion of TNFα [7]: minimal secretion of TNFα
inhibition of proliferation of LNCaP cells [8]: fails to inhibit proliferation
block of inhibition of proliferation by PMA [8]: able to block the inhibition of proliferation by PMA

CCC/C=C/C=C/C(=O)O[C@H]1/C(=C/C(=O)OC)C[C@H]2C[C@H]([C@@H](C)O)OC(=O)C[C@H](O)C[C@@H]3C[C@H](OC(C)=O)C(C)(C)[C@](O)(C[C@@H]4C/C(=C/C(=O)OC)C[C@H](/C=C/C(C)(C)[C@]1(O)O2)O4)O3 [Bryostatin 1, bryostatin 1]
Ki (Mouse PKC α): 0.48 ± 0.03 nM
DC50 (PKCβII; [10]): 0.31 ± 0.005 nM
down regulation of PKCδ (PKCδ; 24 hours): down regulation with a biphasic dose response curve
down regulation of PKCε (PKCε): little down regulation
inhibition of U937 cell proliferation (U937 leukemia cells [1]): very limited, biphasic inhibition
suppression of growth inhibition induced by PMA (U937 leukemia cells [1]): able to suppress the growth inhibition induced by PMA
cell attachment (U937 leukemia cells [2]): much reduced level of cell attachment compared to that induced by PMA
inhibition of attachment induced by PMA (U937 leukemia cells [2]): able to inhibit the attachment induced by PMA
synergy with araC for loss of mitochondrial membrane potential (U937 cells): able to synergize with araC
translocation pattern of mouse GFP-PKCδ (mouse GFP-PKCδ): only to the nuclear membrane and internal membranes
translocation pattern of human GFP-PKCδ (human GFP-PKCδ): some initial plasma membrane translocation
translocation pattern of human YFP-PKCε (human YFP-PKCε; LNCaP cells, 1000 nM): resembled that with PMA, albeit less extensive
translocation pattern of human GFP-PKCα (human GFP-PKCα; CHO cells, 1000 nM): some translocation of the human PKCα to the plasma membrane but with most forming a thick ring around the nucleus
PKCδ phosphorylation on Y311 [4]: inability to induce efficient PKCδ phosphorylation on Y311
induction of PKCδ phosphorylation at S299 [4]: closely similar
changes in levels of mRNA expression [5]: generally similar for bryostatin 1 and bryostatin 7 and less than they were for PMA
inhibition of secretion of TNFα induced by PMA [7]: inhibits the secretion of TNFα induced by PMA
secretion of TNFα [7]: minimal secretion of TNFα
inhibition of proliferation of LNCaP cells [8]: little inhibitory effect
block of inhibition of proliferation by PMA [8]: prevents the inhibition by PMA

CCCCCCCCCCCCCC(=O)O[C@@H]1[C@@H](C)[C@@]2(O)[C@@H](C=C(CO)C[C@]3(O)C(=O)C(C)=C[C@@H]23)[C@@H]2C(C)(C)[C@]12OC(C)=O [PMA]
level of down regulation of PKCβII (PKCβII; 24 hours): less down regulation
down regulation of PKCδ (PKCδ; 24 hours): little down regulation
down regulation of PKCε (PKCε): little down regulation
TNFα secretion [9]: higher level of secretion
translocation pattern of mouse GFP-PKCδ (mouse GFP-PKCδ): initial translocation to the plasma membrane
translocation pattern of human YFP-PKCε (human YFP-PKCε; LNCaP cells, 1000 nM): rapid clearing of the cytoplasm with translocation of PKCε to the plasma membrane
translocation pattern of human GFP-PKCα (human GFP-PKCα; CHO cells, 1000 nM): slow but clear plasma membrane translocation
PKCδ in the nuclear enriched fraction [3]: increase in PKCδ in the nuclear enriched fraction
pPKD1 in the nuclear fraction [3]: substantial accumulation in the nuclear fraction
tumor promoting activity (tumor promotion): tumor promoter
inhibition of proliferation of LNCaP cells [8]: inhibits cellular proliferation

From paper PMC3631439 (ACS chemical biology, 2013)
